In PubChem BioAssay (NCI):
Values joined by “and” are separate entries in the source; they are usually repeats but may differ in a detail not shown here. Equal values may be shown once.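 Step 1: Grow cells in 96-well plates. Step 2: Expose to compound for 48 hours at 5 concentrations. Step 3: Interpolate endpoints linearly; if unreached, use highest concentration. The concentration for 50% growth inhibition is given as GI50. TGI denotes the concentration required for complete inhibition of growth.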

What was measured:
Assay in all cases: inhibition of tumour cell growth, NCI panel, 48 h
HL-60(TB) leukemia = tested on: HL-60(TB) leukemia
HCT-15 colon = tested on: HCT-15 colon
EKVX NSCLC = tested on: EKVX NSCLC
T-47D breast = tested on: T-47D breast
UO-31 renal = tested on: UO-31 renal
MALME-3M melanoma = tested on: MALME-3M melanoma
UACC-62 melanoma = tested on: UACC-62 melanoma
IGROV1 ovarian = tested on: IGROV1 ovarian
NCI-H522 lung = tested on: NCI-H522 lung
TK-10 renal = tested on: TK-10 renal
OVCAR-5 ovarian = tested on: OVCAR-5 ovarian
LOX IMVI melanoma = tested on: LOX IMVI melanoma
NCI-H226 lung = tested on: NCI-H226 lung
MOLT-4 leukemia = tested on: MOLT-4 leukemia
RXF 393 renal = tested on: RXF 393 renal
SF-539 CNS = tested on: SF-539 CNS
NCI/ADR-RES ovarian = tested on: NCI/ADR-RES ovarian
786-0 renal = tested on: 786-0 renal
NCI-H460 lung = tested on: NCI-H460 lung
HS 578T breast = tested on: HS 578T breast
SW-620 colon = tested on: SW-620 colon
A549 NSCLC = tested on: A549 NSCLC
SN12C renal = tested on: SN12C renal
MDA-MB-435 = tested on: MDA-MB-435
SK-MEL-28 melanoma = tested on: SK-MEL-28 melanoma
HCT-116 colon = tested on: HCT-116 colon
HCC-2998 colon = tested on: HCC-2998 colon
HOP-92 NSCLC = tested on: HOP-92 NSCLC
OVCAR-4 ovarian = tested on: OVCAR-4 ovarian
OVCAR-3 ovarian = tested on: OVCAR-3 ovarian
PC-3 prostate = tested on: PC-3 prostate
UACC-257 melanoma = tested on: UACC-257 melanoma
A498 renal = tested on: A498 renal
NCI-H23 lung = tested on: NCI-H23 lung
HT29 colon = tested on: HT29 colon
M14 melanoma = tested on: M14 melanoma
CCRF-CEM leukemia = tested on: CCRF-CEM leukemia
SK-OV-3 ovarian = tested on: SK-OV-3 ovarian
SF-295 CNS = tested on: SF-295 CNS
DU-145 prostate = tested on: DU-145 prostate
RPMI-8226 leukemia = tested on: RPMI-8226 leukemia
COLO 205 colon = tested on: COLO 205 colon
MCF7 breast = tested on: MCF7 breast
SR leukemia = tested on: SR leukemia
SK-MEL-2 melanoma = tested on: SK-MEL-2 melanoma
CAKI-1 renal = tested on: CAKI-1 renal
BT-549 breast = tested on: BT-549 breast
OVCAR-8 ovarian = tested on: OVCAR-8 ovarian
MDA-N = tested on: MDA-N
HOP-62 NSCLC = tested on: HOP-62 NSCLC
K-562 leukemia = tested on: K-562 leukemia
U251 CNS = tested on: U251 CNS
SK-MEL-5 melanoma = tested on: SK-MEL-5 melanoma
MDA-MB-231 breast = tested on: MDA-MB-231 breast
ACHN renal = tested on: ACHN renal
SF-268 CNS = tested on: SF-268 CNS
SNB-75 CNS = tested on: SNB-75 CNS
KM12 colon = tested on: KM12 colon
SNB-19 CNS = tested on: SNB-19 CNS

CCN(CC)c1ncnc2c1ncn2CCNC(CO)(CO)CO
TGI (HL-60(TB) leukemia): > 100 µM
TGI (HCT-15 colon): > 100 µM
TGI (EKVX NSCLC): > 100 µM
TGI (T-47D breast): > 100 µM
TGI (UO-31 renal): > 100 µM
TGI (MALME-3M melanoma): > 100 µM
TGI (UACC-62 melanoma): > 100 µM
TGI (IGROV1 ovarian): > 100 µM
TGI (NCI-H522 lung): > 100 µM
TGI (TK-10 renal): > 100 µM
TGI (OVCAR-5 ovarian): > 100 µM
TGI (LOX IMVI melanoma): > 100 µM
TGI (NCI-H226 lung): > 100 µM
TGI (MOLT-4 leukemia): > 100 µM
TGI (RXF 393 renal): > 100 µM
TGI (SF-539 CNS): > 100 µM
TGI (NCI/ADR-RES ovarian): > 100 µM
TGI (786-0 renal): > 100 µM
TGI (NCI-H460 lung): > 100 µM
TGI (HS 578T breast): > 100 µM
TGI (SW-620 colon): > 100 µM
TGI (A549 NSCLC): > 100 µM
TGI (SN12C renal): > 100 µM
TGI (MDA-MB-435): > 100 µM
TGI (SK-MEL-28 melanoma): > 100 µM
TGI (HCT-116 colon): > 100 µM
TGI (HCC-2998 colon): > 100 µM
TGI (HOP-92 NSCLC): > 100 µM
TGI (OVCAR-4 ovarian): > 100 µM
TGI (OVCAR-3 ovarian): > 100 µM
TGI (PC-3 prostate): > 100 µM
TGI (UACC-257 melanoma): > 100 µM
TGI (A498 renal): > 100 µM
TGI (NCI-H23 lung): > 100 µM
TGI (HT29 colon): > 100 µM
TGI (M14 melanoma): > 100 µM
TGI (CCRF-CEM leukemia): > 100 µM
TGI (SK-OV-3 ovarian): > 100 µM
TGI (SF-295 CNS): > 100 µM
TGI (DU-145 prostate): > 100 µM
TGI (RPMI-8226 leukemia): > 100 µM
TGI (COLO 205 colon): > 100 µM
TGI (MCF7 breast): > 100 µM
TGI (SR leukemia): > 100 µM
TGI (SK-MEL-2 melanoma): > 100 µM
TGI (CAKI-1 renal): > 100 µM
TGI (BT-549 breast): > 100 µM
TGI (OVCAR-8 ovarian): > 100 µM
TGI (MDA-N): > 100 µM
TGI (HOP-62 NSCLC): > 100 µM
TGI (K-562 leukemia): > 100 µM
TGI (U251 CNS): > 100 µM
TGI (SK-MEL-5 melanoma): > 100 µM
TGI (MDA-MB-231 breast): > 100 µM
TGI (ACHN renal): > 100 µM
TGI (SF-268 CNS): > 100 µM
TGI (SNB-75 CNS): > 100 µM
TGI (KM12 colon): > 100 µM
TGI (SNB-19 CNS): > 100 µM

CC(=O)O[C@H]1CC2C(C3CC[C@H](C(C)CCC(N)=O)[C@]31C)[C@H](OC(C)=O)C[C@@H]1CC3(CC[C@]21C)OOC1(CCC(C)CC1)OO3 (stereo partly specified)
TGI (HL-60(TB) leukemia): 6.13 µM and 4.82 µM
TGI (HCT-15 colon): 4.89 µM and 3.43 µM
GI50 (EKVX NSCLC): 1.01 µM and 1.43 µM
TGI (EKVX NSCLC): 2.35 µM and 2.78 µM
TGI (T-47D breast): 4.19 µM and 4.21 µM
TGI (UO-31 renal): 3.08 µM and 2.64 µM
TGI (MALME-3M melanoma): 9.95 µM and 4.07 µM
GI50 (UACC-62 melanoma): 1.85 µM
TGI (UACC-62 melanoma): 3.99 µM
GI50 (IGROV1 ovarian): 1.54 µM and 0.491 µM
TGI (IGROV1 ovarian): 3.07 µM and 1.84 µM
TGI (NCI-H522 lung): 3.6 µM and 2.94 µM
TGI (TK-10 renal): 8.39 µM and 3.57 µM
TGI (OVCAR-5 ovarian): 4.86 µM and 3.66 µM
TGI (NCI-H226 lung): 6.2 µM and 3.15 µM
TGI (MOLT-4 leukemia): 4.47 µM and 4.44 µM
TGI (RXF 393 renal): 9.72 µM
TGI (SF-539 CNS): 7.1 µM and 3.37 µM
TGI (NCI/ADR-RES ovarian): 8.01 µM and 3.28 µM
TGI (786-0 renal): 3.78 µM and 3.2 µM
TGI (NCI-H460 lung): 8.76 µM
TGI (HS 578T breast): 5.77 µM and 5.51 µM
TGI (SW-620 colon): 11.5 µM and 4.24 µM
TGI (A549 NSCLC): 6.13 µM
TGI (SN12C renal): 5.69 µM and 3.24 µM
TGI (MDA-MB-435): 4.47 µM and 3.23 µM
GI50 (SK-MEL-28 melanoma): 5.65 µM and 2.48 µM
TGI (SK-MEL-28 melanoma): 14.3 µM and 8.13 µM
TGI (HCT-116 colon): 5.36 µM and 3.72 µM
TGI (HCC-2998 colon): 4.57 µM and 3.96 µM
TGI (HOP-92 NSCLC): 6.25 µM and 3.56 µM
TGI (OVCAR-4 ovarian): 3.52 µM and 3.02 µM
TGI (OVCAR-3 ovarian): 3.51 µM and 3.8 µM
TGI (PC-3 prostate): 9.44 µM and 4.29 µM
TGI (UACC-257 melanoma): 22.9 µM and 19.2 µM
TGI (A498 renal): 29.3 µM and 24.4 µM
TGI (NCI-H23 lung): 5.29 µM and 3.45 µM
TGI (HT29 colon): 7.01 µM
TGI (M14 melanoma): 8.64 µM and 3.76 µM
TGI (CCRF-CEM leukemia): 3.33 µM and 4.43 µM
GI50 (SK-OV-3 ovarian): 4.3 µM and 2.11 µM
TGI (SK-OV-3 ovarian): 16.3 µM and 3.94 µM
TGI (SF-295 CNS): 12.3 µM and 3.59 µM
GI50 (DU-145 prostate): 1.82 µM
TGI (DU-145 prostate): 3.26 µM
TGI (RPMI-8226 leukemia): 4.07 µM
TGI (COLO 205 colon): 3.19 µM and 3.12 µM
TGI (MCF7 breast): 15.2 µM and 5.01 µM
TGI (SR leukemia): 3.28 µM
TGI (SK-MEL-2 melanoma): 4.37 µM and 3.2 µM
TGI (CAKI-1 renal): 5.15 µM and 3.25 µM
TGI (BT-549 breast): 6.43 µM and 3.35 µM
TGI (OVCAR-8 ovarian): 4.56 µM and 3.12 µM
TGI (MDA-N): 4.91 µM
GI50 (HOP-62 NSCLC): 1.47 µM and 1.07 µM
TGI (HOP-62 NSCLC): 2.96 µM and 2.31 µM
TGI (K-562 leukemia): 16.8 µM and 5 µM
TGI (U251 CNS): 3.78 µM
TGI (SK-MEL-5 melanoma): 11.6 µM and 3.22 µM
TGI (MDA-MB-231 breast): 4.94 µM
TGI (ACHN renal): 3.88 µM and 2.93 µM
TGI (SF-268 CNS): 4.46 µM
GI50 (SNB-75 CNS): 1.98 µM
TGI (SNB-75 CNS): 4.05 µM
TGI (KM12 colon): 4.69 µM and 3.41 µM
GI50 (SNB-19 CNS): 5.31 µM and 2.62 µM
TGI (SNB-19 CNS): 19.4 µM and 5.72 µM
